The values below come from patent publication US10858355B2, “Inhibitors of phosphatidylinositol 3-kinase gamma” (AstraZeneca AB, priority 2016, dated 2020).

Molecules are shown by their SMILES.

For the experiment, the target named is recombinant human PI3Kγ (aa144-1102)-6His (Homo sapiens (Human), UniProt P48736). The experiment can be described thus: Test A: Enzymatic Activity Assay for Rec Human PI3Kγ (ADP-Glo). Conditions: 20 μM ATP, 80 μM DiC8-PIP2, 1.2 nM PI3Kγ, 15 min pre-incubation, 60 min reaction. In kind it is biochemical. How it is done:
Pharmacological Activity Test A: Enzymatic Activity Assay for Rec Human PI3Kγ
The activity of recombinant human PI3Kγ (aa144-1102)-6His was determined by measuring the ADP level after phosphorylation of DiC8-PIP2 using a commercially available ADP-Glo™ kit from Promega. The assay was carried out in white low volume 384 well plates in a final volume of 14 μl at rt. The assay conditions contained the following: 50 mM Tris buffer pH 7.4, 2.1 mM DTT, 3 mM MgCl2, 0.05% CHAPS, 20 μM ATP, 80 μM DiC8-PIP2 and 1.2 nM PI3Kγ. […] Routinely, inhibitors were pre-incubated with 3 μl of PI3Kγ for 15 min prior to the addition of […] substrate mixture for a further 60 min enzyme reaction. The phosphorylation was stopped with the addition of 3 μl ADP-Glo™ reagent (stop solution) followed by a 40 min incubation. Prior to detection 6 μl of ADP-Glo™ Kinase Detection Reagent was added and the plates were read in a micro plate reader using a Luminescence filter.
(ADP-Glo turns the ADP formed in a reaction into a luminescent signal.)

Sequence of recombinant human PI3Kγ (aa144-1102)-6His (P48736 144-1102): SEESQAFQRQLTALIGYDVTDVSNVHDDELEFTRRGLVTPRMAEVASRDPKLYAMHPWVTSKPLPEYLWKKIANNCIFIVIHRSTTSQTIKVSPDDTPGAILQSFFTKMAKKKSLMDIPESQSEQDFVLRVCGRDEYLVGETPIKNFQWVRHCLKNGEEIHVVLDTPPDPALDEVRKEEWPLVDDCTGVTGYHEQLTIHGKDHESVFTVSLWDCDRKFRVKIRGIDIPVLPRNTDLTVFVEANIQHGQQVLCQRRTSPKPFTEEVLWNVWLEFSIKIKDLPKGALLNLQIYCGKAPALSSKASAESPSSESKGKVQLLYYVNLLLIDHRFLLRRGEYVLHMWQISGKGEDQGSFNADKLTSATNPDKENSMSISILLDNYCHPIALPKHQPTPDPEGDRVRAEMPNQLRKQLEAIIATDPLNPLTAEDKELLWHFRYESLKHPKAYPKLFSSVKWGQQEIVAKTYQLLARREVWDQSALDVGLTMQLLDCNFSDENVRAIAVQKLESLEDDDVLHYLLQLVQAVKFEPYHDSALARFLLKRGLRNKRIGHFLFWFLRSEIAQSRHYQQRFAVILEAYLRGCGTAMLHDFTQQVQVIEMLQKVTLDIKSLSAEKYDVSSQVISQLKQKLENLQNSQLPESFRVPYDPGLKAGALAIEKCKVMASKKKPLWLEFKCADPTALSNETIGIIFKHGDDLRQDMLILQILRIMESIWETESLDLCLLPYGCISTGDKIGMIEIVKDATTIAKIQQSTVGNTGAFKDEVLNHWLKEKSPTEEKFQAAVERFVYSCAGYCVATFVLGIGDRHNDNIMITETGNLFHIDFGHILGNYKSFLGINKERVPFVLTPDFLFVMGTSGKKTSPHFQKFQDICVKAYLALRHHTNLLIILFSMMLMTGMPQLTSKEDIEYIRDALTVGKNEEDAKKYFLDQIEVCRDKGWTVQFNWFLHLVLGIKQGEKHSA

Consider `CNS(=O)(=O)c1cc(-c2sc(NC(C)=O)nc2C)cc2c1C(=O)N(C(C)(C)C1CC1)C2` [Example 32, N-{5-[2-(2-Cyclopropylpropan-2-yl)-7-(methylsulfamoyl)-1-oxo-2,3-dihydro-1H-isoindol-5-yl]-4-methyl-1,3-thiazol-2-yl}acetamide], for which the “PI3Kγ activity, pIC50” value was 9.0.

Consider `CNS(=O)(=O)c1cc(-c2sc(NC(C)=O)nc2C)cc2c1C(=O)N([C@@H](C)C(C)(C)C)C2` [Example 33, N-(5-{2-[(2S)-3,3-Dimethylbutan-2-yl]-7-(methylsulfamoyl)-1-oxo-2,3-dihydro-1H-isoindol-5-yl}-4-methyl-1,3-thiazol-2-yl)acetamide], for which the “PI3Kγ activity, pIC50” value is on record as 8.8.

As to `CNS(=O)(=O)c1cc(-c2sc(NC(C)=O)nc2C)cc2c1C(=O)N(C(C)(C)C)C2` [Example 34, N-{5-[2-tert-Butyl-7-(methylsulfamoyl)-1-oxo-2,3-dihydro-1H-isoindol-5-yl]-4-methyl-1,3-thiazol-2-yl}acetamide], the “PI3Kγ activity, pIC50” value was 8.8.

On to `CNS(=O)(=O)c1cc(-c2sc(NC(C)=O)nc2C)cc2c1C(=O)N([C@@H](C)C(F)(F)F)C2` [Example 35, N-(4-Methyl-5-{7-(methylsulfamoyl)-1-oxo-2-[(2S)-1,1,1-trifluoropropan-2-yl]-2,3-dihydro-1H-isoindol-5-yl}-1,3-thiazol-2-yl)acetamide], for which the “PI3Kγ activity, pIC50” value turned out to be 9.0.

On to `CC(=O)Nc1nc(C)c(-c2cc3c(c(S(=O)(=O)Nc4cccc(C#N)c4)c2)C(=O)N([C@@H](C)C2CC2)C3)s1` [Example 36, N-(5-{7-[(3-Cyanophenyl)sulfamoyl]-2-[(1S)-1-cyclopropylethyl]-1-oxo-2,3-dihydro-1H-isoindol-5-yl}-4-methyl-1,3-thiazol-2-yl)acetamide], for which the “PI3Kγ activity, pIC50” value was 9.3.

In the case of `CC(=O)Nc1nc(C)c(-c2cc3c(c(S(=O)(=O)Nc4cccc(C#N)c4)c2)C(=O)N(C(C)C)C3)s1` [Example 37, N-(5-{7-[(3-Cyanophenyl)sulfamoyl]-1-oxo-2-(propan-2-yl)-2,3-dihydro-1H-isoindol-5-yl}-4-methyl-1,3-thiazol-2-yl)acetamide], the “PI3Kγ activity, pIC50” value amounted to 9.0.
